Data as given in ChEMBL document CHEMBL1157980, “Guaianolides as immunomodulators. Synthesis and biological activities of dehydrocostus lactone, mokko lactone, eremanthin, and their derivatives” (J Nat Prod, 1999).

Experiments:
[1] = Inhibition of killing activity of CD8+ specific mouse CTL-OE4 cells; assay type: functional, cell-based
A549 = assay: Inhibition of IL-1-beta-induced ICAM1 expression in human A549 cells; assay type: functional, cell-based

| Structure (SMILES) | IC50 [1] [µM] | IC50 (A549) [µM] |
| --- | --- | --- |
| C=C1CC[C@@H]2[C@H]1[C@H]1OC(=O)C(=C)[C@@H]1C[C@H]1O[C@@]21C | 8 | 6 |
| C=C1CC[C@H]2C(C)=CCC3=C(C)C(=O)O[C@@H]3[C@@H]12 | > 100 | 142 |
| C=C1CC[C@H]2C(=C)CCC3=C(C)C(=O)O[C@@H]3[C@@H]12 | 50 | 442 |
| C=C1CC[C@]23O[C@@]2(C)CCC2=C(C)C(=O)O[C@@H]2[C@@H]13 | > 1000 | 136 |
| C=C1CC[C@H]2C(=C)CC[C@@H]3[C@H](OC(=O)[C@H]3C)[C@@H]12 [MOKKO LACTONE] | > 1000 | 251 |
| C=C1CC[C@H]2C(C)=CC[C@H]3C(=C)C(=O)O[C@@H]3[C@@H]12 [EREMANTHIN] | 11 | 46 |
| C=C1CC[C@@]23O[C@]2(C)CC[C@H]2C(=C)C(=O)O[C@@H]2[C@@H]13 | 7 | 7 |
| C=C1C(=O)O[C@@H]2[C@H]3C(C)=CC[C@H]3C(=C)CC[C@@H]12 [ISODEHYDROCOSTUS LACTONE] | 16 |  |
| C=C1CC[C@H]2C(=C)CC[C@H]3C(=C)C(=O)O[C@@H]3[C@@H]12 [DEHYDROCOSTUSLACTONE] | 14 | 10 |
| C=C1CC[C@@H]2[C@H](OC(=O)[C@H]2C)[C@H]2C(C)=CC[C@@H]12 | > 100 |  |
| C=C1CC[C@@H]2[C@H]1[C@H]1OC(=O)[C@@H](C)[C@@H]1C[C@H]1O[C@@]21C | 422 | 117 |
| C=C1CC[C@]23O[C@@]2(C)CC[C@H]2C(=C)C(=O)O[C@@H]2[C@@H]13 | 7 | 10 |
| C=C1CCC2=C(C)CC[C@H]3C(=C)C(=O)O[C@@H]3[C@@H]12 | 15 | 8 |
| C=C1CC[C@@]23O[C@]2(C)CC[C@@H]2[C@H](OC(=O)[C@H]2C)[C@@H]13 | > 1000 | 253 |
| C=C1CC[C@]23O[C@@]2(C)CC[C@@H]2[C@H](OC(=O)[C@H]2C)[C@@H]13 | 597 | 504 |
